Data taken from US11104670B2, “4-pyrimidin-5-ylmethyl-morpholine derivatives and the use thereof as medicament” (Boehringer Ingelheim International GmbH, priority 2018, dated 2021).

Legend:
[1] = biological target: NMDA NR1/NR2B receptor (Homo sapiens (Human), UniProt Q13224); experiment: NMDA NR1/NR2B FLIPR calcium assay in HEK293 cells; assay type: cell-based; conditions: glycine/glutamate-induced calcium, read-out: IC50, in vitro NR2B affinity in the FLIPR assay
Description: A human HEK293 cell line with tetracyclin-inducible expression of NMDA NR1/NR2B receptor was used as a test system for compound efficacy and potency. The cell line was purchased from ChanTest, Catalog #CT6121. Compound activity was determined by measuring the effect of compounds on intracellular calcium concentration induced by glycine/glutamate agonism in a FLIPRtetra system (Molecular Devices).
The cells were obtained as frozen cells in cryo-vials and stored until use at −150° C. Cells were grown in culture medium (DMEM/F12, 10% FBS, 5 μg/mL Blasticidin, 150 μg/mL Zeozin, 500 μg/mL Geneticin). […] For sub-culturing the cells were detached from flasks by Versene. For the assay, cells were detached, washed twice with induction medium (DMEM/F12 without glutamine, 10% FBS, 2 μg/mL Tetracycline, 2 mM Ketamine) and seeded to 384 well pure coat amine plates (Becton Dickinson, 50000 cells per well in 50 μl) 48 h prior to assay in induction medium.
The test compounds were dissolved in 100% DMSO at a concentration of 10 mM and in a first step diluted in DMSO to a concentration of 5 mM, followed by serial dilution steps in 100% DMSO. Dilution factor and number of dilution steps may vary according to needs. Typically 8 different concentrations by 1:5 dilutions were prepared in duplicate, further intermediate dilutions (1:37.5) of the substances were carried out with aqueous assay buffer (137 mM NaCl, 4 mM KCl, 1.8 mM CaCl2), 10 mM HEPES, 10 mM Glucose, pH 7.4) resulting in a compound concentration 3 times above the final test concentration and DMSO at 2.7% resulting in 0.9% final DMSO concentration in the assay.
At the assay day cells were washed 3× with assay buffer (as described above), 10 μL buffer remained in the wells after washing. 10 μL Ca kit loading buffer (AAT Bioquest; prepared from the kit containing the following components: Component A: Fluo-8 NW dissolved in 200 μL DMSO and 20 μl of this solution are mixed with 10 ml buffer prepared out of component B and C, Component B: 10× Pluronic® F127 Plus diluted 1:10 in component C, Component C: HHBS (Hanks with 20 mM Hepes) was added to the cells and the plates were incubated with lid for 60 minutes at room temperature. 20 μl assay buffer containing 60 μM glycine (20 μM final) and 3 μM glutamate (1 μM final) was added to column 1-23, column 24 got assay buffer without glycine/glutamate to serve as negative unstimulated control. Fluorescence (indicating the calcium influx as a result of the NR1/NR2B ion channel activation) was read on the FLIPRtetra device for 60 seconds to monitor the glutamate induced effects. After 2 minutes 20 μL of compound dilution prepared as described above or controls (row 1-22) in assay buffer were carefully added to the wells. […] The average of 2 measurements at 5 minutes and 5 min 10 seconds after compound addition is calculated and further used for IC50 calculations. Each assay microtiter compound dilution plate contained wells (in column 23 or 24) with DMSO controls instead of compound as controls for glycine/glutamate induced fluorescence (high controls) and wells with 1 μM of a reference NR2B NAM as low controls (Compound 22; reference: Layton, Mark E et al, ACS Chemical Neuroscience 2011, 2(7), 352-362).
The output file of the reader contains the well number and measured average fluorescence units. For data evaluation and calculation, the measurement of the low control was set as 0% control and the measurement of the high control was set as 100% control. The IC50 values were calculated using the standard 4 parameter logistic regression formula. Calculation: [y=(a−d)/(1+(x/c)^b)+d], a=low value, d=high value; x=conc M; c=IC50 M; b=slope.

[2] = Metabolic stability in pooled human liver microsomes; assay type: in vitro ADME; conditions: pH 7.6, 1 μM compound, 1 mg/mL microsomal protein, 37° C., NADPH, read-out: Half-life - t½ human liver microsomes
Source text: Stability in human liver microsomes refers to the susceptibility of compounds to biotransformation in the context of selecting and/or designing drugs with favorable pharmacokinetic properties. The primary site of metabolism for many drugs is the liver. Human liver microsomes contain the cytochrome P450s (CYPs), and thus represent a model system for studying drug metabolism in vitro. Enhanced stability in human liver microsomes is associated with several advantages, including increased bioavailability and adequate half-life, which can enable lower and less frequent dosing of patients. Thus, enhanced stability in human liver microsomes is a favorable characteristic for compounds that are to be used for drugs.
The metabolic degradation of the test compound was assayed at 37° C. with pooled human liver microsomes. The final incubation volume of 60 μl per time point contains TRIS buffer pH 7.6 at room temperature (0.1 M), magnesium chloride (5 mM aqueous solution), microsomal protein (1 mg/mL for human) and the test compound at a final concentration of 1 μM. Following a short preincubation period at 37° C., the reactions were initiated by addition of betanicotinamide adenine dinucleotide phosphate, reduced form (NADPH, 1 mM), and terminated by transferring an aliquot into acetonitril after different time points. After centrifugation (10000 g, 5 min), an aliquot of the supernatant was assayed by HPLC-MS/MS as described above for the MDCK assay P-gp for the amount of parent compound. The half-life was determined by the slope of the semi-logarithmic plot of the concentration-time profile.

Sequence of NMDA NR1/NR2B receptor (Q13224 27-1484, other chains not shown): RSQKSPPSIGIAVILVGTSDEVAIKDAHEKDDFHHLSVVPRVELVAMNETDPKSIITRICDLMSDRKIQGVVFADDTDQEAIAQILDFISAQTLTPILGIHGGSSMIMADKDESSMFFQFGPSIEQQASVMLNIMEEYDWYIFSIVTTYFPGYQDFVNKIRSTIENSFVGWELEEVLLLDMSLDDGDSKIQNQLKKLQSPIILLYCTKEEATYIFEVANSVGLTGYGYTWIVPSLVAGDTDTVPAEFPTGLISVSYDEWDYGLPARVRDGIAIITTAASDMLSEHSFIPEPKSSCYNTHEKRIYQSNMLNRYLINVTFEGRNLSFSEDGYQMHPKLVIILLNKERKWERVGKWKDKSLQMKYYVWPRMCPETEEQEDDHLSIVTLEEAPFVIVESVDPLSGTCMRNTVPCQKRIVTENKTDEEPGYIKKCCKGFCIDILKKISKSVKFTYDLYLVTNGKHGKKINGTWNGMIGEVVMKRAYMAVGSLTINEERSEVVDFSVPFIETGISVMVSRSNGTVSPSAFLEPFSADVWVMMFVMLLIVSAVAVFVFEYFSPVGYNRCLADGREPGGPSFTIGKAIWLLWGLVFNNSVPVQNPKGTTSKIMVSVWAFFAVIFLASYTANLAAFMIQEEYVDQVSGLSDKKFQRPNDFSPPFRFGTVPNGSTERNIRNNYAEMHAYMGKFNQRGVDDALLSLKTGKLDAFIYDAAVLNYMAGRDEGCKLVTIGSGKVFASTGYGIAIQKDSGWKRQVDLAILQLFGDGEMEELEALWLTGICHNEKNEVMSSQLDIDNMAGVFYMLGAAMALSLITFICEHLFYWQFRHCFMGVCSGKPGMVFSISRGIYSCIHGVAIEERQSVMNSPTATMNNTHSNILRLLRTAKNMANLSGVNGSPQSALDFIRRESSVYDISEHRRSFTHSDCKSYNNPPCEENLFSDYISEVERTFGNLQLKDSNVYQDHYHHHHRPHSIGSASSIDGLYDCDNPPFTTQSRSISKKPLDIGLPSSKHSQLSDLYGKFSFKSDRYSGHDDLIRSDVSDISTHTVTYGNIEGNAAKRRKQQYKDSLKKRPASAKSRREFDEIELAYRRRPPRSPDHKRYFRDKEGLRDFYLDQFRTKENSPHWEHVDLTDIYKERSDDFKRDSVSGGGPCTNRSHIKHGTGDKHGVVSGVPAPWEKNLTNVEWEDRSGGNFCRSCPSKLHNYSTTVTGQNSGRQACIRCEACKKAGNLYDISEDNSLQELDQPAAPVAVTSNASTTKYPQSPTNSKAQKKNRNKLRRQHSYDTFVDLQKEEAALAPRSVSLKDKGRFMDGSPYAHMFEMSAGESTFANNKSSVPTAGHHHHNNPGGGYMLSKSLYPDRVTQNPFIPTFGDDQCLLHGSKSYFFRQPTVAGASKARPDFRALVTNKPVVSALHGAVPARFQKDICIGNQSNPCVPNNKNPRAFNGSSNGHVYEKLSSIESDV

IC50 [1] | half-life at 1 µM [2] | SMILES
0.5 µM | > 2.17 h | CNC(=O)[C@@H]1CN(Cc2cnc(Oc3ccc(C)cc3)nc2)CCO1 [Example 28]
1.11 µM | > 2.17 h | CNC(=O)[C@@H]1CN(Cc2cnc(Oc3ccc(C)cc3C)nc2)CCO1 [Example 22]
0.133 µM | > 2.17 h | CNC(=O)[C@@H]1CN(Cc2cnc(Oc3ccc(C)cc3F)nc2)CCO1 [Example 20]
0.35 µM | > 2.17 h | CNC(=O)[C@@H]1CN(Cc2cnc(Oc3ccccc3F)nc2)CCO1 [Example 27]
0.55 µM | > 2.17 h | CNC(=O)[C@@H]1CN(Cc2cnc(Oc3ccccc3Cl)nc2)CCO1 [Example 26]
0.216 µM | > 2.17 h | CNC(=O)[C@@H]1CN(Cc2cnc(Oc3ccc(Cl)cc3)nc2)CCO1 [Example 25]
0.547 µM | > 2.17 h | CNC(=O)[C@@H]1CN(Cc2cnc(Oc3ccc(F)cc3)nc2)CCO1 [Example 32]
0.098 µM | > 2.17 h | CNC(=O)[C@@H]1CN(Cc2cnc(Oc3ccc(Cl)cc3F)nc2)CCO1 [Example 24]
0.702 µM | > 2.17 h | CNC(=O)[C@@H]1CN(Cc2cnc(Oc3ccc(F)cc3C)nc2)CCO1 [Example 21]
0.143 µM | > 2.17 h | CNC(=O)[C@@H]1CN(Cc2cnc(Oc3ccc(F)cc3F)nc2)CCO1 [Example 23]
